Like-named read-outs stand apart in the source and are kept apart here.
Legend:
wister male rats = experiment: Acute toxicity after intravenous injection of emulsion, observed by dissection (pulmonary emphysema); type: in vivo; conditions: i.v., rat, one week after injection
Experimental: (§1) According to the above preparation method of the emulsion, the emulsions of various perfluoroalkyl ether derivatives are prepared. Nine parts by volume of the resulting emulsion were diluted with 1 part by volume of an electrolyte solution of the following composition:
(§2) The emulsions were sterized by heating at 100° C. for 30 minutes in a nitrogen atmosphere. The emulsions were used for the following test.
The emulsions which had been made physiologically isotonic were injected intravenously to the wister male rats of 100 to 200 g. One week after the injection acute toxicity was observed by dissection, and evaluation was effected according to the following measures.
Toxic: Occurrence of pulmonary emphysema. LD50 : 2-4 g/kg
Non toxicic: No occurence of pulmonary emphysema. LD50 : above 20 g/kg

[1] = Stability of emulsion stored at 4° C. (change of particle size); type: physicochemical; set-up: key: Excellent: Particle size is hardly increased one month after the storage.; Good: The increase of the particle size is at most 50% or liquid-particle separation is observed one month after the storage; conditions: one month at 4° C., emulsion sterilized 100° C. 30 min
Experimental: as §1, §2
The emulsions were stored at 4° C. and the stability was measured in terms of the change of the particle size by the following measures.
Good: The increase of the particle size is at most 50% or liquid-particle separation is observed one month after the storage.

[2] = comparison between perfluorochemicals; cited from earlier work
[3] = Elimination property: half reduction term in the body of the rat; type: in vivo
Experimental: as §1, §2
This property was measured by the half reduction term in the body of the rat, and evaluated as follows: […]

[4] = 37° C.; cited from earlier work
[5] = Vapor pressure of the perfluorochemical; conditions: 38° C.

SMILES: FC(F)(F)C(F)(F)C(F)(F)C(F)(F)OC(C(F)(F)F)(C(F)(F)F)C(F)(F)C(F)(F)C(F)(F)F [drawing 61]
- Toxicity (wister male rats): Non tox- ic
- Stability of Emulsion [1]: Excellent

SMILES: FC(F)(F)C(F)(F)OC(C(F)(F)F)(C(F)(C(F)(F)F)C(F)(F)F)C(F)(C(F)(F)F)C(F)(F)F
- Stability of Emulsion [1]: excellent

SMILES: FC(F)(F)C(F)(F)C(F)(F)C(F)(F)C1(F)C(F)(F)C(F)(F)C(F)(F)C(F)(F)C1(F)F [III]
- elimination rate (in words) [2]: IV>>III≥I >II

SMILES: FC(F)(F)C(F)(F)C(F)(F)OC(F)(C(F)(C(F)(F)F)C(F)(F)F)C(F)(C(F)(F)F)C(F)(F)F [drawing 62]
- Elimination property [3]: fair
- Stability of Emulsion [1]: excellent

SMILES: FC1(F)C(F)(F)C(F)(F)[C@]2(F)C(F)(F)C(F)(F)C(F)(F)C(F)(F)[C@]2(F)C1(F)F [perfluoro-cis-decalin]
- elimination rate (in words) [2]: slightly higher elimination rate than the trans isomer
- Vapor pressure [4]: 10.1 mmHg

SMILES: FC(F)(F)OC(F)(C(F)(F)F)C(F)(F)C(C(F)(F)F)(C(F)(F)C(F)(F)F)C(F)(F)C(F)(F)F (stereo not shown) [drawing 63]
- Stability of Emulsion [1]: good

SMILES: FC(F)(F)C(F)(F)C(F)(F)OC(F)(F)C(F)(F)C(F)(F)C(F)(F)C(F)(F)C(F)(F)C(F)(F)F [Example 18, Perfluoro-1-n-propoxyheptane]
- Vapor pressure [5]: 15-16 mmHg
- Elimination property [3]: poort
- Stability of Emulsion [1]: good

SMILES: FC(F)(F)C(F)(F)C1(C(F)(F)F)C(F)(C(F)(F)F)OC(F)(C(F)(F)F)C1(F)C(F)(F)F (stereo not shown) [II]
- elimination rate (in words) [2]: IV>>III≥I >II

SMILES: FC1(F)C(F)(F)C(F)(F)C2(F)C(F)(F)C(F)(F)C(F)(F)C(F)(F)C2(F)C1(F)F (stereo not shown) [IV]
- elimination rate (in words) [2]: IV>>III≥I >II

SMILES: FC(F)(F)C(F)(F)C(F)(F)C(F)(F)C(F)(F)C(F)(F)C(F)(F)OC(F)(C(F)(F)F)C(F)(F)F [Ex. 20, Perfluoro-1-isopropoxyheptane]
- Vapor pressure [5]: 14-15 mmHg

SMILES: FC(F)(F)C(F)(F)C(F)(F)C(F)(F)C(F)(F)C(F)(F)C(F)(F)OC(F)(F)C(F)(C(F)(F)F)C(F)(F)F [Ex. 22, Perfluoro-1-isobutoxyheptane]
- Vapor pressure [5]: 8-9 mmHg

SMILES: FC(F)(F)C(F)(F)OC(OC(F)(F)C(F)(F)C(F)(F)C(F)(F)C(F)(F)F)(C(F)(F)F)C(F)(F)F [Example 31, perfluoro-2-pentoxy-2-ethoxy propane]
- Vapor pressure [5]: 13-14 mmHg

SMILES: FC1(F)C(F)(F)C(F)(F)[C@]2(F)C(F)(F)C(F)(F)C(F)(F)C(F)(F)[C@@]2(F)C1(F)F [trans isomer]
- Vapor pressure [4]: 11.6 mmHg

SMILES: FC(F)(F)C(F)(F)C(F)(F)C(F)(F)C(F)(F)OC(F)(F)C(F)(F)C(F)(F)C(F)(F)C(F)(F)F [I]
- elimination rate (in words) [2]: IV>>III≥I >II

SMILES: FC(F)(F)N(C(F)(F)C(F)(F)F)C(F)(F)C(F)(C(F)(F)F)C(F)(F)C(F)(C(F)(F)F)C(F)(F)F (stereo not shown) [Example 37, perfluoro-1-ethyl-methylamino-2,4-dimethylpentane]
- Vapor pressure [5]: 12-13 mmHg

SMILES: FC(F)(F)C(F)(F)OC(F)(F)C(F)(C(F)(F)F)C(F)(OC(F)(F)C(F)(F)F)C(F)(F)C(F)(F)F (stereo not shown) [Example 28, perfluoro-1,3-diethoxy-2-methylpentane]
- Vapor pressure [5]: 13-14 mmHg

SMILES: FC(F)(F)C(F)(F)C(F)(F)OC(F)(C(F)(C(F)(F)F)C(F)(F)F)C(F)(C(F)(F)F)C(F)(F)F [Example 7, Perfluoro-3-propoxy-2,4-dimethylpentane]
- Vapor pressure [5]: 16-17 mmHg

SMILES: FC(F)(F)N(C(F)(F)F)C(F)(C(F)(C(F)(F)F)C(F)(F)F)C(F)(C(F)(F)F)C(F)(F)F [Example 44, perfluoro-3-dimethylamino-2,4-dimethylpentane]
- Vapor pressure [5]: 21-22 mmHg

SMILES: FC(F)(F)C(F)(F)OC(F)(F)C(F)(F)C(F)(F)C(F)(F)C(F)(F)C(F)(F)C(F)(F)F [Ex. 19, Perfluoro-1-ethoxyheptane]
- Vapor pressure [5]: 33 mmHg

SMILES: FC(F)(F)N(C(F)(F)C(F)(F)F)C(F)(F)C(F)(C(F)(F)F)C(F)(F)C(F)(F)C(F)(F)F (stereo not shown) [Example 34, perfluoro-1-ethylmethylamino-2-methylpentane]
- Vapor pressure [5]: 21 mmHg
